Results as given in patent US6451804B1, “Heteroalkylamino-substituted bicyclic nitrogen heterocycles” (Syntex (U.S.A.) LLC, priority 1999, dated 2002).
pIC50: −log10 of the molar value. Where a name gives a salt, the structure may show the parent alone.

Target: T1, p38 MAP kinase (Homo sapiens, UniProt Q16539)
T1 construct: made in house; host or cells: E. coli (co-expressed with SEK-1 and MEKK)
Experiment: In vitro p38 MAP kinase inhibition assay (transfer of γ-phosphate from γ-33P-ATP to Myelin Basic Protein)
Format: biochemical
Conditions: phosphorylated recombinant p38 MAP kinase, MBP substrate
Description: This example illustrates a p38 (MAP) kinase in vitro assay useful for evaluating the compounds of the present invention.
The p38 MAP kinase inhibitory activity of compounds of this invention in vitro was determined by measuring the transfer of the γ-phosphate from γ-^33P-ATP by p38 kinase to Myelin Basic Protein (MBP), using a minor modification of the method described in Ahn, et al., J. Biol. Chem. 266:4220-4227 (1991).
The phosphorylated form of the recombinant p38 MAP kinase was co-expressed with SEK-1 and MEKK in E. Coli (see, Khokhlatchev, et al., J. Biol. Chem. 272:11057-11062 (1997)) and then purified by affinity chromatography using a Nickel column.
The phosphorylated p38 MAP kinase was diluted in kinase buffer (20 mM 3-(N-morpholino)propanesulfonic acid, pH 7.2, 25 mM β-glycerol phosphate, 5 mM ethylene glycol-bis(beta-aminoethyl ether)-N,N,N′,N′-tetraacetic acid, 1 mM sodium ortho-vanadate, 1 mM dithiothreitol, 40 mM magnesium chloride). Test compound dissolved in DMSO or only DMSO (control) was added and the samples were incubated for 10 minutes at 30° C. The kinase reaction was initiated by the addition of a substrate cocktail containing MBP and γ-^33P-ATP. After incubating for an additional 20 minutes at […], the reaction was terminated by adding 0.75% phosphoric acid. The phosphorylated MBP was then separated from the residual γ-^33P-ATP using a phosphocellulose membrane (Millipore, Bedfrod, Mass.) and quantitated using a scintillation counter (Packard, Meriden, Conn.).

T1 sequence (Q16539 whole entry): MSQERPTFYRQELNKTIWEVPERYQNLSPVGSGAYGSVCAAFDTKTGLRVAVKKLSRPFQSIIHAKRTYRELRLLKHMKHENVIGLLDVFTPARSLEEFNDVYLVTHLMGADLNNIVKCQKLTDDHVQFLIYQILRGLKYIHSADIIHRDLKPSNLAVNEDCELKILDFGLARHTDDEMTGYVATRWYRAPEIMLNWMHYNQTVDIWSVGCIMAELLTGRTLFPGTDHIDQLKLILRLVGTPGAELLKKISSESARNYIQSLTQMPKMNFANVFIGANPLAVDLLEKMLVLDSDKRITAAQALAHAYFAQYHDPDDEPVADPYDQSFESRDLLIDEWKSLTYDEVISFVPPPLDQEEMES

| SMILES | pIC50 |
| --- | --- |
| CN1C(=O)N(c2ccccc2Cl)Cc2cnc(NCC(C)(C)CN)nc21 [Compound 3-1] | > 5.00 |
| CCOC(=O)N1CCC(Nc2ncc3c(n2)NC(=O)N(c2ccccc2Cl)C3)CC1 [Compound 2-28, 3-(2-chlorophenyl)-7-(1-ethoxycarbonylpiperidin-4-ylamino)-3,4-dihydropyrimido[4,5-d]pyrimidin-2(1H)-one] | > 5.00 |
| Cc1ccccc1N1Cc2cnc(NCC(C)(C)CN)nc2N(C)C1=O [Compound 3-3] | > 5.00 |
| Cc1ccccc1N1Cc2cnc(NC(C)(C)CO)nc2N(C)C1=O [Compound 3-12] | > 5.00 |
| O=C1N(c2ccccc2Cl)Cc2cnc(N[C@H]3CC[C@H](O)CC3)nc2N1CC(F)(F)F [Compound 3-60, 3-(2-chlorophenyl)-7-(trans-4-hydroxycyclohexylamino)-1-(2,2,2-trifluoroethyl)-3,4-dihydropyrimido[4,5-d]pyrimidin-2(1H)-one] | > 5.00 |

Tested on: not given
Experiment: not given
Conditions: not given

| SMILES | melting point |
| --- | --- |
| CN1C(=O)N(c2ccccc2Cl)Cc2cnc(NCC(C)(C)CN)nc21 [Compound 3-1] | 183 to 235 °C |
| CN1C(=O)N(c2ccccc2Cl)Cc2cnc(NC(C)(C)C(O)CO)nc21 (stereo not drawn) (as salt: hydrochloride) [Compound 3-28, 3-(2-chlorophenyl)-7-(2,3-dihydroxy-1,1-dimethylpropylamino)-1-methyl-3,4-dihydropyrimido[4,5-d]pyrimidin-2(1H)-one] | 203.1 to 204.1 °C |
| CN1C(=O)N(c2ccccc2Cl)Cc2cnc(NC3(CO)CCCCC3)nc21 (as salt: hydrochloride) [Compound 3-43, 3-(2-chlorophenyl)-7-[(1-hydroxymethylcyclohexyl)amino]-1-methyl-3,4-dihydropyrimido[4,5-d]pyrimidin-2(1H)-one] | 203.7 to 207.8 °C |
| Cc1ccccc1N1Cc2cnc(NC3CCN(CCC#N)CC3)nc2N(C)C1=O (as salt: hydrochloride) [Compound 2-15, 7-[1-(2-cyanoethyl)-piperidin-4-ylamino]-1-methyl-3-ortho-tolyl-3,4-dihydropyrimido[4,5-d]pyrimidin-2(1H)-one] | 195 to 208.5 °C |
| Cc1ccccc1N1Cc2cnc(N[C@H](C)[C@@H](O)CO)nc2N(C)C1=O [Compound 3-23, 7-((R,R)-2,3-dihydroxy-1-methylpropylamino)-3-ortho-tolyl-1-methyl-3,4-dihydropyrimido[4,5-d]pyrimidin-2(1H)-one] | 119.8 to 121.8 °C |
| O=C1N(c2ccccc2Cl)Cc2cnc(N[C@H]3CC[C@H](O)CC3)nc2N1CC(F)(F)F [Compound 3-60, 3-(2-chlorophenyl)-7-(trans-4-hydroxycyclohexylamino)-1-(2,2,2-trifluoroethyl)-3,4-dihydropyrimido[4,5-d]pyrimidin-2(1H)-one] | 130 to 133.5 °C |

More lines, now with the values ahead:

| melting point | SMILES |
| --- | --- |
| 173.6 to 189.7 °C | O=C1Nc2nc(NC3CCC4(CC3)OCCO4)ncc2CN1c1ccccc1Cl (as salt: hydrochloride) [Compound 4-24, 3-(2-chlorophenyl)-7-(1,4-dioxaspiro[4.5]dec-8-ylamino)-3,4-dihydropyrimido[4,5-d]pyrimidin-2(1H)-one] |
| 161 to 172 °C | Cc1ccccc1N1Cc2cnc(N[C@H](C)[C@@H](O)CO)nc2NC1=O (as salt: hydrochloride) [Compound 4-4, (R,R)-7-(2,3-dihydroxy-1-methylpropylamino)-3-ortho-tolyl-3,4-dihydropyrimido[4,5-d]pyrimidin-2(1H)-one] |
| 267 to 267.6 °C | NC(=O)O[C@H]1CC[C@H](Nc2ncc3c(n2)NC(=O)N(c2ccccc2Cl)C3)CC1 (as salt: hydrochloride) [Compound 4-21, 7-(trans-4-carbamoyloxycyclohexylamino)-3-(2-chlorophenyl)-3,4-dihydropyrimido[4,5-d]pyrimidin-2(1H)-one] |
| 269 to 271 °C | CNC(=O)O[C@H]1CC[C@H](Nc2ncc3c(n2)NC(=O)N(c2ccccc2Cl)C3)CC1 (as salt: hydrochloride) [Compound 4-22, 3-(2-chlorophenyl)-7-(trans-4-methylaminocarbonyloxycyclohexylamino)-3,4-dihydropyrimido[4,5-d]pyrimidin-2(1H)-one] |
